Key:
[1] = system: MOLT-4; assay: Solid tumour and haematological malignancy assay (CellTiterGlo); format: cell-based; settings: Homo sapiens, MOLT-4, 72 h; for IC50: read-out: IC50 (absolute IC50); for Emax: read-out: MI %
Description: (§1) In vitro viability assay were performed to assess the effects of compounds on cell viability in selected cell lines over 72 hr using the CellTiterGlo (CTG, Promega-G7573) assay. The tests were performed in duplicates with treatment of compounds at 9 points, 3.16 folds titration in 96 well plates over ˜72 hr. The compound starting concentrations were 198 mM. Cell viability assay using CellTiterGlo in 96-well plate were performed. Compound treatment 72 hrs, standard growth conditions, duplicates. Compounds were dissolved to 40 mM with thawed […]. Compounds were serially diluted at 3.16 fold in thawed DMSO, and warmed to 37° C. before being dissolved in media (2 μl+200 μl). After compounds were dissolved in media, media containing compounds were warmed to 37° C. in incubator and then compounds in media were added to cell plates (50 μl+50 μl) in duplicates. The compounds' final concentrations were from 198M to 19.9 nM. All compound solubilities were checked and recorded again, then the plates were transferred to CO2 tissue culture incubator immediately and incubated for 3 days. DMSO final concentration is 0.5%.

[2] = system: HS445; assay: as above; format: cell-based; settings: 72 hr
Description: as §1

[3] = system: BxPC-3; assay: as above; format: cell-based; settings: 72 hr
Description: as §1

[4] = system: Jurkat; assay: as above; format: cell-based; settings: for MI %: 72 hr; for IC50: Homo sapiens, 72 h, read-out: IC50 (absolute IC50)
Description: as §1

[5] = system: CEM (TdT+ve); assay: ATP ViaLight plus cell viability assay; format: cell-based, Human; settings: for (FD) fold difference compared to control: CEM
Description: Certain compounds of the invention were subjected to further studies to test the cytotoxic activity of certain compounds of the invention and also to measure their activity against 4 haematological cancer cell lines • TdT positive CEM (Human ALL) • TdT negative K562 (Human CML) • TdT negative H1-60 (Human ANLL) • RL (CRL-2261) non-HD lymphoma • The concentrations of the active metabolite dATP (Cordycepin triphosphate) in these cell lines was also measured. • The cytotoxic activity and the intracellular 3′-dATP concentrations were also studied in the presence of hENT1, Adenosine Kinase (AK) and Adenosine Deaminase pharmacological inhibitors in CEM and RL cancer cell lines. Said inhibitors that mimic known cancer resistance mechanisms. Methods Cell Culture
HL-60, K562, CCRF-CEM and RL cell lines were cultured in RPMI-1640 medium (Sigma Aldrich, UK), which were supplemented with 10% Fetal Bovine Serum (FBS) (PAA Laboratories), 1% amphotericin B (5.5 ml) and 1% penicillin/streptomycin (5.5 ml) (PAA Laboratories) and grown in flasks at 37° C. incubator with 5% CO2.
The amount of ATP was used as a measurement of cell number and cell viability. ATP ViaLight™ plus assay kit (Lonza, USA: Product No. LT07-121) to detect ATP in cells treated in luminescence compatible 96 well plates (initial concentration of cells was 1×10^4 cells/well) with cordycepin and ProTides at concentrations of: 0, 0.1, 0.5, 1, 5 and 10 μM, followed by incubation for 72 hours at 37° C. incubator with 5% CO2. For inhibitor studies, 10 μM of NBTI or 1 μM EHNA or A-134974 was added and left for 5 minutes before adding the drugs (see section 5 for inhibitor details).
After incubation, 50 μl of cell lysis reagent was added to the 96 well plates to release the intracellular ATP, followed by 100 μl of ATP monitoring reagent (AMR). The luminescent values of each well were determined using FLUOstar OPTIMA microplate reader (BMG Labtech) which convert ATP into light by using luciferase enzyme. Therefore, the amount of luminescence produced was directly proportional to the amount of ATP.
Cell lines were treated in the same way as described above but before treatment with drugs, a number of inhibitors were added: • 1) Nitrobenzylthioinosine (NBTI) (Sigma-Aldrich, St. Louis, MO, product # N2255) blocks nucleoside transporters • 2) EHNA hydrochloride (Sigma-Aldrich, St. Louis, MO, product # E114) blocks adenosine deaminase • 3) Adenosine kinase inhibitor A-134974 dihydrochloride hydrate (Sigma-Aldrich, St. Louis, MO, product # A2846): blocks adenosine kinase
The dose-response curves of cytotoxicity of the drugs was determined using non-linear regression analysis of percentage cell viability versus concentration and EC50 values were obtained. The intracellular assay was conducted in five replicates for each condition. Intracellular assay was determined using paired t test (two-tailed) analysis of 3′ ATP/ATP concentration and p-values were obtained. For all the analysis, Prism Software program (GraphPad Software) was used and Microsoft Powerpoint® 2013 was used to plot the results.

[6] = system: HT29; assay: Solid tumour and haematological malignancy assay (CellTiterGlo); format: cell-based; settings: Homo sapiens, HT-29, 72 h; for IC50: read-out: IC50 (absolute IC50); for Emax: read-out: MI %
Description: as §1, with “The tests were performed in duplicates with treatment of compounds at 9 points, 3.16 folds titration in 96 well plates over ˜72 hr. The compound starting concentrations were 198 mM.” left out, “Compounds were serially diluted at 3.16 fold in thawed DMSO, and warmed to 37° C. before being dissolved in media (2 μl+200 μl).” left out, “The compounds' final concentrations were from 198M to 19.9 nM.” left out

[7] = system: HepG2; assay: as above; format: cell-based; settings: Homo sapiens, HepG2, 72 h; for Emax: read-out: MI %
Description: as §1, with “The tests were performed in duplicates with treatment of compounds at 9 points, 3.16 folds titration in 96 well plates over ˜72 hr. The compound starting concentrations were 198 mM.” left out, “Compounds were serially diluted at 3.16 fold in thawed DMSO, and warmed to 37° C. before being dissolved in media (2 μl+200 μl).” left out, “The compounds' final concentrations were from 198M to 19.9 nM.” left out

[8] = system: HL-60; assay: as above; format: cell-based; settings: Homo sapiens, HL-60, 72 h, read-out: MI %
Description: as §1, with “The tests were performed in duplicates with treatment of compounds at 9 points, 3.16 folds titration in 96 well plates over ˜72 hr. The compound starting concentrations were 198 mM.” left out, “Compounds were serially diluted at 3.16 fold in thawed DMSO, and warmed to 37° C. before being dissolved in media (2 μl+200 μl).” left out, “The compounds' final concentrations were from 198M to 19.9 nM.” left out

[9] = system: KG-1; assay: as above; format: cell-based; settings: Homo sapiens, KG-1, 72 h; for IC50: read-out: IC50 (absolute IC50); for Emax: read-out: MI %
Description: as §1, with “The tests were performed in duplicates with treatment of compounds at 9 points, 3.16 folds titration in 96 well plates over ˜72 hr. The compound starting concentrations were 198 mM.” left out, “Compounds were serially diluted at 3.16 fold in thawed DMSO, and warmed to 37° C. before being dissolved in media (2 μl+200 μl).” left out, “The compounds' final concentrations were from 198M to 19.9 nM.” left out

[10] = system: MCF7; assay: as above; format: cell-based; settings: Homo sapiens, MCF7, 72 h; for IC50: read-out: IC50 (absolute IC50); for Emax: read-out: MI %
Description: as §1, with “The tests were performed in duplicates with treatment of compounds at 9 points, 3.16 folds titration in 96 well plates over ˜72 hr. The compound starting concentrations were 198 mM.” left out, “Compounds were serially diluted at 3.16 fold in thawed DMSO, and warmed to 37° C. before being dissolved in media (2 μl+200 μl).” left out, “The compounds' final concentrations were from 198M to 19.9 nM.” left out

[11] = system: MiaPaCa-2; assay: as above; format: cell-based; settings: Homo sapiens, MIA PaCa-2, 72 h, read-out: MI %
Description: as §1, with “The tests were performed in duplicates with treatment of compounds at 9 points, 3.16 folds titration in 96 well plates over ˜72 hr. The compound starting concentrations were 198 mM.” left out, “Compounds were serially diluted at 3.16 fold in thawed DMSO, and warmed to 37° C. before being dissolved in media (2 μl+200 μl).” left out, “The compounds' final concentrations were from 198M to 19.9 nM.” left out

[12] = system: K562; assay: as above; format: cell-based; settings: Homo sapiens, K562, 72 h; for IC50: read-out: IC50 (absolute IC50); for Emax: read-out: MI %
Description: as §1, with “The tests were performed in duplicates with treatment of compounds at 9 points, 3.16 folds titration in 96 well plates over ˜72 hr. The compound starting concentrations were 198 mM.” left out, “Compounds were serially diluted at 3.16 fold in thawed DMSO, and warmed to 37° C. before being dissolved in media (2 μl+200 μl).” left out, “The compounds' final concentrations were from 198M to 19.9 nM.” left out

[13] = system: HEL92.1.7; assay: as above; format: cell-based; settings: Homo sapiens, HEL 92.1.7, 72 h, read-out: MI %
Description: as §1, with “The tests were performed in duplicates with treatment of compounds at 9 points, 3.16 folds titration in 96 well plates over ˜72 hr. The compound starting concentrations were 198 mM.” left out, “Compounds were serially diluted at 3.16 fold in thawed DMSO, and warmed to 37° C. before being dissolved in media (2 μl+200 μl).” left out, “The compounds' final concentrations were from 198M to 19.9 nM.” left out

Structure (SMILES)	IC50 [1]	Emax [1]	MI % [2]	MI % [3]	MI % [4]	IC50 [4]	(FD) fold difference compared to Cordycepin = Cordycepin IC50/ProTide IC50 ([5]; CEM (TdT+ve))	(FD) fold difference compared to control ([5]; AK)	(FD) fold difference compared to control ([5]; EHNA)	(FD) fold difference compared to control ([5]; NBTI)	IC50 [6]	Emax [6]	Emax [7]	Emax [8]	IC50 [9]	Emax [9]	IC50 [10]	Emax [10]	Emax [11]	Emax [13]	other results
C[C@H](NP(=O)(OC[C@@H]1C[C@@H](O)[C@H](n2cnc3c(N)ncnc32)O1)Oc1cccc2ccccc12)C(=O)OCc1ccccc1 (stereo partly drawn) [B, (2S)-benzyl 2-(((((2S,4R,5R)-5-(6-amino-9H-purin-9-yl)-4-hydroxytetrahydrofuran-2-yl)methoxy)(naphthalen-1-yloxy)phosphoryl)amino)propanoate]	0.1 to 5 µM	98%	96%	90%	100%	0.1 to 5 µM	150	1	1	1	5 to 15 µM	98%	98%	99%	5 to 15 µM	97%	0.1 to 5 µM	96%	98%	98%	IC50 [12]: 0.1 to 5 µM; Emax [12]: 99%
COC(=O)C(C)(C)NP(=O)(OC[C@@H]1C[C@@H](O)[C@H](n2cnc3c(N)ncnc32)O1)Oc1cccc2ccccc12 (stereo partly drawn) [E, Methyl 2-(((((2S,4R,5R)-5-(6-amino-9H-purin-9-yl)-4-hydroxytetrahydrofuran-2-yl)-methoxy)(naphthalen-1-yloxy)phosphoryl)amino)-2-methylpropanoate]	–	98%	85%	71%	95%	–	2	1	1	2	15 to 100 µM	76%	67%	95%	15 to 100 µM	–	5 to 15 µM	89%	91%	101%	IC50 ([7]; read-out: IC50 (absolute IC50)): 15 to 100 µM; IC50 [12]: 5 to 15 µM
CCOC(=O)CCc1ccccc1OP(=O)(N[C@@H](C)C(=O)OCc1ccccc1)OC[C@@H]1C[C@@H](O)[C@H](n2cnc3c(N)ncnc32)O1 (stereo partly drawn) [F, (2S)-benzyl 2-(((((2S,4R,5R)-5-(6-amino-9H-purin-9-yl)-4-hydroxytetrahydrofuran-2-yl)methoxy)(2-(3-ethoxy-3-oxopropyl)phenoxy)phosphoryl)amino)propanoate]	0.1 to 5 µM	98%	92%	78%	100%	0.1 to 5 µM	5	–	–	–	15 to 100 µM	89%	79%	96%	15 to 100 µM	95%	5 to 15 µM	103%	101%	99%	IC50 ([5]; Homo sapiens, 72 h, CEM (TdT+ve), 72 hours): 4.3 µM; Emax [12]: 93%

Source: US12054510B2, “2′ and/or 5′ amino-acid ester phosphoramidate 3′-deoxy adenosine derivatives as anti-cancer compounds” (Nucana plc, priority 2014, dated 2024)
